Measured values taken from ChEMBL document CHEMBL4651402, “Screening of ~5500 FDA-approved drugs and clinical candidates for anti-SARS-CoV-2 activity” (2021).
Counter-ions that a name gives are not always drawn.

Tested on: SARS-CoV-2
Assay: microbe, parasite or virus in culture
Conditions: Severe acute respiratory syndrome coronavirus 2, Vero C1008, 48 h

| Compound | IC50 | IC50 (read-out: pIC50 (converted)) |
| --- | --- | --- |
| CC(C)(N)Cc1ccccc1 [PHENTERMINE] | > 20 µM | > 20 µM |
| CCCCCCCCCC(=O)N[C@@H](Cc1c[nH]c2ccccc12)C(=O)N[C@H](CC(N)=O)C(=O)N[C@@H](CC(=O)O)C(=O)N[C@@H]1C(=O)NCC(=O)N[C@@H](CCCN)C(=O)N[C@@H](CC(=O)O)C(=O)N[C@H](C)C(=O)N[C@@H](CC(=O)O)C(=O)NCC(=O)N[C@H](CO)C(=O)N[C@@H]([C@H](C)CC(=O)O)C(=O)N[C@@H](CC(=O)c2ccccc2N)C(=O)O[C@@H]1C | > 20 µM | > 20 µM |
| O=C(Nc1cccnn1)N1CCC(=Cc2cccc(Oc3ccc(C(F)(F)F)cn3)c2)CC1 | > 20 µM | > 20 µM |
| Nc1nc(=O)[nH]cc1F [FLUCYTOSINE] | > 20 µM | > 20 µM |
| CN(C)c1ccc(-c2ccc3cc(OC[C@@H](O)CF)ccc3n2)cc1 | > 20 µM | > 20 µM |
| CC(=O)c1ccc(S(=O)(=O)NC(=O)NC2CCCCC2)cc1 [ACETOHEXAMIDE] | > 20 µM | > 20 µM |
| C=CCc1ccc(OC)cc1 [ESTRAGOLE] | > 20 µM | > 20 µM |
| CCC/N=C1\S/C(=C\c2ccc(OC[C@H](O)CO)c(Cl)c2)C(=O)N1c1ccccc1C [PONESIMOD] | > 20 µM | > 20 µM |
| O=C1O[C@H](CO)[C@@H](O)[C@H](O)[C@H]1O [GLUCONOLACTONE] | > 20 µM | > 20 µM |
| C#C[C@]1(O)CCC2C3CCC4=CC(=O)CCC4C3CCC21CC (stereo partly drawn) | > 20 µM | > 20 µM |
| OCc1ccccn1 [PICONOL] | > 20 µM | > 20 µM |
| C=CC(=O)N(C)CCOc1c(N)ncnc1-c1cc(F)cc(NC(=O)c2ccc(C3CC3)cc2F)c1C [REMIBRUTINIB] | > 20 µM | > 20 µM |
| O=C(OCCN1CCCCCC1)C(c1ccsc1)C1CCCCC1 (stereo not drawn) | > 20 µM | > 20 µM |
| CN1c2ccccc2Sc2ccc(CC(=O)O)cc21 [METIAZINIC ACID] | > 20 µM | > 20 µM |
| CC(C(=O)Nc1ccc(Cl)cc1)[C@H]1CC[C@@H](c2ccnc3ccc(F)cc32)CC1 (stereo partly drawn) | > 20 µM | > 20 µM |
| CC(C)(C)C#Cc1cc(N(C(=O)[C@H]2CC[C@H](C)CC2)[C@H]2CC[C@@H](O)CC2)c(C(=O)O)s1 | > 20 µM | > 20 µM |
| CC(=O)N[C@@H](Cc1ccccc1)C(=O)N[C@H]1CCCNC(=O)[C@H](CCCN=C(N)N)NC(=O)[C@H](Cc2c[nH]c3ccccc23)NC(=O)[C@@H](CC2CCCCC2)NC(=O)[C@@H]2CCCN2C1=O | > 20 µM | > 20 µM |
| COc1ccc2c3c1O[C@H]1[C@@H](O)C=C[C@H]4[C@@H](C2)NCC[C@@]341 [NORCODEINE] | > 20 µM | > 20 µM |
| COc1cc2c(cc1O)CCNC2C (stereo not drawn) [SALSOLINE] | > 20 µM | > 20 µM |
| CC(=O)C1(O)CCC2C3CC(C)C4=CC(=O)C=CC4(C)C3(F)C(O)CC21C (stereo not drawn) | > 20 µM | > 20 µM |
| Cc1n[nH]c(=O)[nH]c1=O | > 20 µM | > 20 µM |
| O=C(/N=C(/Nc1cc(F)cc(Cl)c1)Nc1cc(C(F)(F)F)[nH]n1)c1cccc(Cl)c1 | > 20 µM | > 20 µM |
| CN(C)c1cccc2c(S(=O)(=O)Nc3ccc(NC(=O)C(C)(C)CO)cc3)cccc12 [TOMEGLOVIR] | > 20 µM | > 20 µM |
| c1cc2c(c(N3CCNCC3)c1)OCCO2 [ELTOPRAZINE] | > 20 µM | > 20 µM |
| CCN(CC)CCNC(=O)c1ccc(N)cc1 [PROCAINAMIDE] | > 20 µM | > 20 µM |

| Compound | IC50 | IC50 (read-out: pIC50 (converted)) |
| --- | --- | --- |
| C=C(C)[C@@H]1CC[C@]2(C(=O)O)CC[C@]3(C)[C@H](CC[C@@H]4[C@@]5(C)CC[C@H](OC(=O)CC(C)(C)C(=O)O)C(C)(C)[C@@H]5CC[C@]43C)[C@@H]12 [BEVIRIMAT] | > 20 µM | > 20 µM |
| O=C(O)CCCc1ccccc1 [PHENYLBUTANOIC ACID] | > 20 µM | > 20 µM |
| COc1nccnc1NS(=O)(=O)c1ccc(N)cc1 | > 20 µM | > 20 µM |
| C[C@H](CCC(=O)O)[C@H]1CC[C@H]2[C@@H]3[C@@H](O)C[C@@H]4C[C@H](O)CC[C@]4(C)[C@H]3C[C@H](O)[C@]12C | > 20 µM | > 20 µM |
| COc1ccc(-c2c(C#N)c(C(=O)NN3CCCCC3)nn2-c2ccc(Cl)cc2Cl)cc1 [JHU-75528] | > 20 µM | > 20 µM |
| O=C1C=CC(=O)c2c(O)cccc21 [JUGLONE] | > 20 µM | > 20 µM |
| CS(=O)(=O)c1ccc([C@@H](O)[C@H](CF)NC(=O)C(Cl)Cl)cc1 | > 20 µM | > 20 µM |
| CNC1=Nc2ccc(Cl)cc2C(c2ccccc2)=[N+]([O-])C1 [CHLORDIAZEPOXIDE] | > 20 µM | > 20 µM |
| COc1cc(/C=C/C(=O)O)ccc1O [FERULATE] | > 20 µM | > 20 µM |
| CC12CCC3C(CC=C4CC(O)CCC43C)C1CCC2=O (stereo not drawn) | > 20 µM | > 20 µM |
| COc1ccc(C(C)=O)c(O)c1 [PAEONOL] | > 20 µM | > 20 µM |
| Nc1nc(=O)c2nc(CNc3ccc(C(=O)N[C@@H](CCC(=O)O)C(=O)O)cc3)cnc2[nH]1 [FOLIC ACID] | > 20 µM | > 20 µM |
| CC(=O)O[C@H]1CC[C@@]2(C)C(CC[C@]3(C)C2C(=O)C=C2[C@H]4C[C@@](C)(C(=O)O)CC[C@]4(C)CC[C@]23C)C1(C)C (stereo partly drawn) | > 20 µM | > 20 µM |
| COc1cc(C(=O)Nc2ccccc2CCC2CCCCN2C)ccc1O (stereo not drawn) [MODECAINIDE] | > 20 µM | > 20 µM |
| CC[C@]12CCCN3CCc4c(n(c5ccccc45)C(=O)C1)[C@@H]32 [VINBURNINE] | > 20 µM | > 20 µM |
| CCCNCC(O)COc1ccccc1C(=O)CCc1ccccc1 (stereo not drawn) [PROPAFENONE] | > 20 µM | > 20 µM |
| O=C(O)C(Cl)Cl [DICHLOROACETIC ACID] | > 20 µM | > 20 µM |
| CC1=CC(=O)C(C(C)C)=CC1=O [THYMOQUINONE] | > 20 µM | > 20 µM |
| COc1ccc(CCN(C)CCCC(C#N)(c2cc(OC)c(OC)c(OC)c2)C(C)C)cc1OC (stereo not drawn) [GALLOPAMIL] | > 20 µM | > 20 µM |
| CNC(=O)c1cnn(-c2nc(N)c3ncn([C@@H]4O[C@H](CO)[C@@H](O)[C@H]4O)c3n2)c1 [REGADENOSON ANHYDROUS] | > 20 µM | > 20 µM |
| CN1CC(CN(CCN=[N+]=[N-])S(C)(=O)=O)=CC2c3cccc4[nH]cc(c34)CC21 (stereo not drawn) | > 20 µM | > 20 µM |
| CC(CC(C(N)=O)(c1ccccc1)c1ccccc1)N(C)C (stereo not drawn) [AMINOPENTAMIDE SULFATE] | > 20 µM | > 20 µM |
| CCC(=O)OC1CCC2C3CCC4=CC(=O)CCC4(C)C3CCC12C (stereo not drawn) | > 20 µM | > 20 µM |
| CCOC(=O)C1=C(C)NC(C)=C(C(=O)OCC)C1c1cccnc1SC [MESUDIPINE] | > 20 µM | > 20 µM |
| CC1=C(C)C(=O)C(CCCCC#CCCCC#CCO)=C(C)C1=O [DOCEBENONE] | > 20 µM | > 20 µM |

| Compound | IC50 | IC50 (read-out: pIC50 (converted)) |
| --- | --- | --- |
| COc1ccc([C@H](Cc2ccncc2)c2ccccc2)cc1OC1CCCC1 [CDP840] | > 20 µM | > 20 µM |
| CN1C(=O)CN2CCc3ccccc3C2c2cc(Cl)ccc21 (stereo not drawn) [CLAZOLAM] | > 20 µM | > 20 µM |
| COc1ccc(-c2coc3cc(O)ccc3c2=O)cc1 [FORMONONETIN] | > 20 µM | > 20 µM |
| Cc1cccc(C)c1NC(=O)CN(CC(=O)O)CC(=O)O [LIDOFENIN] | > 20 µM | > 20 µM |
| Nc1nccs1 [AMINOTHIAZOLE] | > 20 µM | > 20 µM |
| O=C(O)COc1nn(Cc2ccccc2)c2ccccc12 [BENDAZAC] | > 20 µM | > 20 µM |
| C[C@@H]1CN(c2c(F)c(N)c3c(=O)c(C(=O)O)cn(C4CC4)c3c2F)C[C@H](C)N1 [SPARFLOXACIN] | > 20 µM | > 20 µM |
| C[N+](C)(C)C[C@H](O)CC(=O)[O-] [LEVOCARNITINE] | > 20 µM | > 20 µM |
| CCN(CC)CC#CCOC(=O)[C@](O)(c1ccccc1)C1CCCCC1 [AROXYBUTYNIN] | > 20 µM | > 20 µM |
| NC(=O)C1c2ccccc2C=Cc2ccccc21 [CITENAMIDE] | > 20 µM | > 20 µM |
| CC(N)C(=O)OC(C)(C)Cc1ccc(Cl)cc1 (stereo not drawn) [ALAPROCLATE] | > 20 µM | > 20 µM |
| O=C(c1ccc(F)cc1)C1CCN(CCCCn2c(=O)[nH]c3ccccc3c2=O)CC1 [BUTANSERIN] | > 20 µM | > 20 µM |
| C=C1C[C@@H]2[C@H](CC[C@]3(C)C(=O)CC[C@@H]23)[C@@]2(C)C=CC(=O)C=C12 [EXEMESTANE] | > 20 µM | > 20 µM |
| NC(=O)NC1NC(=O)NC1=O (stereo not drawn) [ALLANTOIN] | > 20 µM | > 20 µM |
| CN1C[C@H](CO)C=C2c3cccc4[nH]cc(c34)C[C@H]21 | > 20 µM | > 20 µM |
| COc1cc2c(cc1OC)C(=O)C(CC1CCN(Cc3ccccc3)CC1)C2 (stereo not drawn) [DONEPEZIL] | > 20 µM | > 20 µM |
| CCCC(CCC)C(=O)O [VALPROIC ACID] | > 20 µM | > 20 µM |
| CC12CCC(C(=O)N(CCCCN3CCN(c4ccccn4)CC3)C1=O)C2(C)C (stereo not drawn) | > 20 µM | > 20 µM |
| CC(N)(Cc1ccc(O)c(O)c1)C(=O)O (stereo not drawn) [METHYLDOPA (RACEMIC)] | > 20 µM | > 20 µM |
| O=C(O)c1ccc(OCCn2ccnc2)cc1 [DAZOXIBEN] | > 20 µM | > 20 µM |
| CNC(=O)[C@H]1O[C@@H](n2cnc3c(NCc4cccc(I)c4)ncnc32)[C@H](O)[C@@H]1O [IB-MECA] | > 20 µM | > 20 µM |
| CC[C@H]1/C=C\C=C/C[C@@H](C)[C@H](O)[C@@](C)(O)C(=O)[C@@H](C)[C@H](O)[C@@H](C)C(=O)[C@@H](C)[C@H](O)[C@@H](C)/C=C\C(=O)O[C@@H]2[C@@H](C)[C@H](CC1)O[C@]1(CC[C@H](C)[C@H](C[C@@H](C)O)O1)[C@H]2C | > 20 µM | > 20 µM |
| CCc1occc(=O)c1O [E637] | > 20 µM | > 20 µM |
| CC(=O)Oc1cc(C(C)C)c(OCCN(C)C)cc1C [MOXISYLYTE] | > 20 µM | > 20 µM |
